Measurements reported in ChEMBL document CHEMBL1275582, “Role of the Ser-287-Asn replacement in the hydrolysis spectrum extension of AmpC beta-lactamases in Escherichia coli” (2009).
≈ marks a conversion by molar mass, not a printed value.

How the values were obtained:
Escherichia coli [1] = test: Activity of Escherichia coli TOP10 beta-lactamase AmpC-B2
Escherichia coli [2] = test: Activity of Escherichia coli TOP10 beta-lactamase AmpC-B2 S287N mutant
Escherichia coli [3] = test: Activity of Escherichia coli TOP10 beta-lactamase AmpC-A
Escherichia coli [4] = test: Activity of Escherichia coli TOP10 beta-lactamase AmpC-A S287N mutant
Escherichia coli [5] = test: Antibacterial activity against Escherichia coli TOP10 expressing AmpC-A by agar dilution method; assay type: functional
Escherichia coli [6] = test: Antibacterial activity against Escherichia coli TOP10 expressing AmpC-A by agar dilution method in presence of 2 mg/liter clavulanic acid; assay type: functional
Escherichia coli [7] = test: Antibacterial activity against Escherichia coli TOP10 expressing AmpC-A S287N mutant protein by agar dilution method in presence of 2 mg/liter clavulanic acid; assay type: functional
Escherichia coli [8] = test: Antibacterial activity against Escherichia coli TOP10 expressing AmpC-B2 by agar dilution method; assay type: functional
Escherichia coli [9] = test: Antibacterial activity against Escherichia coli TOP10 expressing AmpC-B2 by agar dilution method in presence of 2 mg/liter clavulanic acid; assay type: functional
Escherichia coli [10] = test: Antibacterial activity against Escherichia coli TOP10 expressing AmpC-B2 S287N mutant protein by agar dilution method in presence of 2 mg/liter clavulanic acid; assay type: functional
Escherichia coli [11] = test: Antibacterial activity against Escherichia coli TOP10 by agar dilution method; assay type: functional
Escherichia coli [12] = test: Antibacterial activity against Escherichia coli TOP10 by agar dilution method in presence of 2 mg/liter clavulanic acid; assay type: functional
Escherichia coli [13] = test: Antibacterial activity against Escherichia coli TOP10 expressing AmpC-A S287N mutant protein by agar dilution method; assay type: functional
Escherichia coli [14] = test: Antibacterial activity against Escherichia coli TOP10 expressing AmpC-B2 S287N mutant protein by agar dilution method; assay type: functional
Escherichia coli [15] = test: Antibacterial activity against Escherichia coli TOP10 expressing AmpC-A by agar dilution method in presence of 4 mg/liter Tazobactam; assay type: functional
Escherichia coli [16] = test: Antibacterial activity against Escherichia coli TOP10 expressing AmpC-A S287N mutant protein by agar dilution method in presence of 4 mg/liter Tazobactam; assay type: functional
Escherichia coli [17] = test: Antibacterial activity against Escherichia coli TOP10 expressing AmpC-B2 by agar dilution method in presence of 4 mg/liter Tazobactam; assay type: functional
Escherichia coli [18] = test: Antibacterial activity against Escherichia coli TOP10 expressing AmpC-B2 S287N mutant protein by agar dilution method in presence of 4 mg/liter Tazobactam; assay type: functional
Escherichia coli [19] = test: Antibacterial activity against Escherichia coli TOP10 by agar dilution method in presence of 4 mg/liter Tazobactam; assay type: functional

Row | SMILES | kcat (Escherichia coli [1]) | kcat (Escherichia coli [2]) | kcat (Escherichia coli [3]) | kcat (Escherichia coli [4]) | MIC (Escherichia coli [5]) | MIC (Escherichia coli [8]) | MIC (Escherichia coli [11]) | MIC (Escherichia coli [13]) | MIC (Escherichia coli [14]) | Km (Escherichia coli [1]) | Km (Escherichia coli [2]) | Km (Escherichia coli [3]) | Km (Escherichia coli [4]) | also measured
1 | O=C(Cc1cccs1)N[C@@H]1C(=O)N2C(C(=O)[O-])=C(C[n+]3ccccc3)CS[C@H]12 | 240 s⁻¹ | 112 s⁻¹ | 230 s⁻¹ | 50 s⁻¹ |  |  |  |  |  |  |  |  |  | 
2 | CC1(C)S[C@@H]2[C@H](NC(=O)[C@H](N)c3ccc(O)cc3)C(=O)N2[C@H]1C(=O)O [AMOXICILLIN] |  |  |  |  | > 512 µg/mL | > 512 µg/mL | 2 µg/mL (≈ 5.47 µM) |  |  |  |  |  |  | MIC (Escherichia coli [6]): > 512 µg/mL; MIC (Escherichia coli [7]): 512 µg/mL; MIC (Escherichia coli [9]): 256 µg/mL; MIC (Escherichia coli [10]): 512 µg/mL; MIC (Escherichia coli [12]): 2 µg/mL
3 | C[C@H]1[C@H](NC(=O)/C(=N\OC(C)(C)C(=O)O)c2csc(N)n2)C(=O)N1S(=O)(=O)O [AZTREONAM] |  |  |  |  | 0.125 µg/mL (≈ 0.287 µM) | 0.06 µg/mL (≈ 0.138 µM) |  | 16 µg/mL (≈ 36.7 µM) |  |  |  |  |  | 
4 | CO/N=C(\C(=O)N[C@@H]1C(=O)N2C(C(=O)[O-])=C(C[N+]3(C)CCCC3)CS[C@H]12)c1csc(N)n1 [CEFEPIME] |  | 0.25 s⁻¹ |  | 1.35 s⁻¹ | 0.06 µg/mL (≈ 0.125 µM) | 0.06 µg/mL (≈ 0.125 µM) |  | 16 µg/mL (≈ 33.3 µM) |  |  |  |  |  | 
5 | CO/N=C(\C(=O)N[C@@H]1C(=O)N2C(C(=O)O)=C(COC(C)=O)CS[C@H]12)c1csc(N)n1 [CEFOTAXIME] | 0.1 s⁻¹ | 0.045 s⁻¹ | 0.2 s⁻¹ | 0.08 s⁻¹ | 1 µg/mL (≈ 2.2 µM) | 0.5 µg/mL (≈ 1.1 µM) | 0.06 µg/mL (≈ 0.132 µM) | 16 µg/mL (≈ 35.1 µM) | 1 µg/mL (≈ 2.2 µM) | 45 µM | 1000 µM | 25 µM | 100 µM | 
6 | CO[C@@]1(NC(=O)Cc2cccs2)C(=O)N2C(C(=O)O)=C(COC(N)=O)CS[C@@H]21 [CEFOXITIN] | 0.4 s⁻¹ | 0.08 s⁻¹ | 0.3 s⁻¹ | 0.1 s⁻¹ | 128 µg/mL (≈ 299 µM) | 128 µg/mL (≈ 299 µM) | 2 µg/mL (≈ 4.68 µM) | 32 µg/mL (≈ 74.9 µM) | 128 µg/mL (≈ 299 µM) | 1.5 µM | 800 µM | 1 µM | 700 µM | 
7 | CC(C)(O/N=C(\C(=O)N[C@@H]1C(=O)N2C(C(=O)[O-])=C(C[n+]3ccccc3)CS[C@H]12)c1csc(N)n1)C(=O)O [CEFTAZIDIME] | 0.3 s⁻¹ | 0.01 s⁻¹ | 0.5 s⁻¹ | 0.2 s⁻¹ | 2 µg/mL (≈ 3.66 µM) | 1 µg/mL (≈ 1.83 µM) | 0.06 µg/mL (≈ 0.11 µM) | 512 µg/mL (≈ 937 µM) | 4 µg/mL (≈ 7.32 µM) |  | 1000 µM | 70 µM | 400 µM | 
8 | CC(=O)OCC1=C(C(=O)O)N2C(=O)[C@@H](NC(=O)Cc3cccs3)[C@H]2SC1 [CEPHALOTHIN] | 540 s⁻¹ | 10 s⁻¹ | 500 s⁻¹ | 65 s⁻¹ | > 512 µg/mL | > 512 µg/mL | 2 µg/mL (≈ 5.04 µM) |  |  | 85 µM |  | 30 µM | 5500 µM | 
9 | C[C@@H](O)[C@H]1C(=O)N2C(C(=O)O)=C(SCCNC=N)C[C@H]12 [IMIPENEM ANHYDROUS] | 0.09 s⁻¹ | 0.06 s⁻¹ |  | 0.06 s⁻¹ | 0.06 µg/mL (≈ 0.2 µM) | 0.06 µg/mL (≈ 0.2 µM) |  | 0.06 µg/mL (≈ 0.2 µM) | 0.06 µg/mL (≈ 0.2 µM) | 32 µM | 2000 µM |  | 200 µM | 
10 | CCN1CCN(C(=O)N[C@@H](C(=O)N[C@@H]2C(=O)N3[C@@H]2SC(C)(C)[C@@H]3C(=O)O)c2ccccc2)C(=O)C1=O [PIPERACILLIN] |  |  |  |  | 4 µg/mL (≈ 7.73 µM) | 2 µg/mL (≈ 3.86 µM) | 1 µg/mL (≈ 1.93 µM) | 8 µg/mL (≈ 15.5 µM) | 4 µg/mL (≈ 7.73 µM) |  |  |  |  | MIC (Escherichia coli [15]): 4 µg/mL; MIC (Escherichia coli [16]): 8 µg/mL; MIC (Escherichia coli [17]): 4 µg/mL; MIC (Escherichia coli [18]): 4 µg/mL; MIC (Escherichia coli [19]): 1 µg/mL
11 | CC1(C)S[C@@H]2[C@H](NC(=O)[C@H](C(=O)O)c3ccsc3)C(=O)N2[C@H]1C(=O)O [TICARCILLIN] |  |  |  |  | 2 µg/mL (≈ 5.2 µM) | 2 µg/mL (≈ 5.2 µM) | 1 µg/mL (≈ 2.6 µM) | 256 µg/mL (≈ 666 µM) | 64 µg/mL (≈ 166 µM) |  |  |  |  | MIC (Escherichia coli [6]): 2 µg/mL; MIC (Escherichia coli [7]): 256 µg/mL; MIC (Escherichia coli [9]): 2 µg/mL; MIC (Escherichia coli [10]): 64 µg/mL; MIC (Escherichia coli [12]): 1 µg/mL
